Data on 1 compound can be found in US5164405A, “Nicardipine pharmaceutical composition for parenteral administration” (Syntex (U.S.A.) Inc., priority 1990, dated 1992).

Data set [1] can be described thus: Dissolution, free base precipitation and tonicity on preparation of formulations. In kind it is physicochemical. Particulars: for Dissolution: added to citrate buffer solution; for Dissolution / Dissolution in water for injection / free base precipitation: monohydrochloride; for Dissolution in water for injection / free base precipitation: unbuffered water for injection, before pH adjustment. Here is the method:
With regard to the process for producing the stable pharmaceutical composition according to the inventions, preferably the citric acid and sodium hydroxide is first dissolved in some water for injection to form a solution of the desired pH. The nicardipine HCI and sorbitol are then added and dissolved in this solution of controlled pH and the resulting solution made to volume with the remainder of the water for injection.
A. In an initial attempt to formulate a pharmaceutical composition of nicardipine hydrochloride suitable for parenteral administration employing conventional techniques well known in the pertinent art, 1 mg of nicardipine hydrochloride was dissolved in water for injection. To this was admixed 6 mg of sodium chloride and a sufficient amount of hydrochloric acid to give a solution having a pH of 3 5. This solution was then made up to volume with water for injection, i.e., to 1 ml. The resulting composition was packaged in an ampule and sterilized by autoclaving.
B. Then, in a following attempt to formulate a pharmaceutical composition of nicardipine hydrochloride for parenteral administration employing conventional techniques well known in the pertinent art, 1 mg of nicardipine hydrochloride together with about 50 mg of the non-chloride, saccharide compound, sorbitol, were dissolved in a portion of water for injection. Sufficient amounts of concentrated hydrochloric acid was added to produce a solution of pH 3.5 and the composition was made to volume with the remainder of the water for injection, i.e. to 1 ml. The resulting composition was packaged in an ampule and sterilized by autoclaving.
The solution was made up to volume, i.e 1 ml. with the remainder of the water for injection. This solution was then filled into ampules and terminally sterilized by autoclaving.

Another data set in a line: physchem. In kind it is physicochemical. Particulars: for solubility thermodynamic: Equilibrium solubility. The source says: The solubilities were equilibrium solubilities measured by a saturated solution method well known to those skilled in the art.

As for `COC(=O)C1=C(C)NC(C)=C(C(=O)OCCN(C)Cc2ccccc2)C1c1cccc([N+](=O)[O-])c1.Cl` (stereo not shown) [Nicardipine Hydrochloride, 2-(Benzylmethylamino)ethyl methyl 1,4-dihydro-2,6-dimethyl-4-(m-nitrophenyl)-3,5-pyridine-dicarboxylate monohydrochloride], the Dissolution entry in data set [1] (listed as Nicardipine HCl) is “very easy”; in data set [1], “rapid and complete dissolution”. Also, the “Precipitation of free base” value in data set [1] (dissolved in buffer solution) is “No precipitation of free base was observed”. Besides, the “Temperature that can be required for dissolution” value in data set [1] (dissolved in water, before buffer addition or unbuffered) was 60-70 °C. In addition, the “Dissolution of required dose strength (1 mg per ml)” value in data set [1] (sodium chloride increased to give an isotonic solution) is listed as “failure to dissolve sufficient nicardipine hydrochloride”. Moreover, the “Dissolution in water for injection / free base precipitation” value is reported as “difficult” in data set [1] (listed as Nicardipine HCl) and “formation of nicardipine free base which precipitates from solution” in data set [1]. In addition, the “Aqueous solubility as a function of pH” value in the data set “physchem” was “reduction in the aqueous solubility”. Moreover, the thermodynamic solubility in the data set “physchem” (water, pH 3.05, water) is 2940 µg/mL; in the data set “physchem” (water, pH 3.45, water), 3280 µg/mL; in the data set “physchem” (water, pH 4.06, water), 2950 µg/mL; in the data set “physchem” (water, pH 4.24, water), 2350 µg/mL; in the data set “physchem” (water, pH 4.68, water), 850 µg/mL; in “physchem” (water, pH 5.05, water), 360 µg/mL. The same compound returned a solubility (thermodynamic) in the data set “physchem” (water, pH 6.21, water) of 25 µg/mL. In addition, the Equilibrium solubility in the data set “physchem” (water, pH 4.06) was determined as 5160 µg/mL.
